Measurements reported in patent US7915291B2, “Hepatitis C virus inhibitors” (Bristol-Myers Squibb Company, priority 2002, dated 2011).
Read-outs that look alike come from different tables or passages of the source.

Experiments:
[1] = tested on: HCV replicon in Huh7 cells; experiment: HCV replicon cell-based assay; set-up: species or system HCV strain 1B; details: Hepatitis C virus, Huh-7; HCV replicon, Huh7 cells; read-out: EC50 range
[2] = molecular target: HCV NS3/4A protease complex, BMS strain (UniProt P27958, C1454S/C1711G, species not given/STRAIN_BMS); experiment: Recombinant HCV NS3/4A protease complex FRET peptide assay (BMS strain); type: biochemical, HCV genotype 1a
In short: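 Recombinant BMS-strain NS3/4A (His-tagged NS4A with three-lysine tail, E. coli) at 2-3 nM preincubated 1 min with compound, then 2 μM ester-linked NS4A/NS4B-based FRET peptide added. Fluorescence followed in real time ~15 min at 25° C. Percent inhibition from slope of linear fluorescence change versus no-compound control.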

[3] = NS3/4A BMS strain; read-out: IC50 range

Row | SMILES | EC50 [1] | IC50 [2, 3] | IC50 ([2]; read-out: IC50 range; NS3/4A BMS strain)
1 | C=C[C@@H]1C[C@]1(NC(=O)[C@@H]1C[C@@H](Oc2ccnc3cc(OC)ccc23)CN1C(=O)[C@@H](NC(=O)OC(C)(C)C)C(C)(C)C)C(=O)NS(=O)(=O)C1CCC1 [Compound 374, BOCNH-P3(L-t -BuGly)-P2[(4R)-(7-methoxyquinoline-4-oxo)-S-proline]-P1(1R,2S Vinyl Acca)-CONHSO2-Cyclobutane] | 0.1 to 1 µM | < 0.1 µM | 
2 | C=C[C@@H]1C[C@]1(NC(=O)[C@@H]1C[C@@H](Oc2ccnc3cc(OC)ccc23)CN1C(=O)[C@@H](NC(=O)OC(C)(C)C)C(C)(C)C)C(=O)NS(=O)(=O)C1CC1 [Compound 375] | < 0.1 µM | < 0.1 µM | 
3 | C=CCCCCC[C@H](NC(=O)OC(C)(C)C)C(=O)N1C[C@H](Oc2ccnc3cc(OC)ccc23)C[C@H]1C(=O)N[C@]1(C(=O)NS(=O)(=O)C2CC2)C[C@H]1C=C [Compound 377] | 0.1 to 1 µM | < 0.1 µM | 
4 | C=C[C@@H]1C[C@]1(NC(=O)[C@@H]1C[C@@H](Oc2ccnc3cc(OC)ccc23)CN1C(=O)[C@@H](NC(=O)OC(C)(C)C)C(C)C)C(=O)NS(=O)(=O)C1CC1 [Compound 378] | < 0.1 µM | < 0.1 µM | 
5 | C=C[C@@H]1C[C@]1(NC(=O)[C@@H]1C[C@@H](Oc2cc(-c3ccccn3)nc3cc(OC)ccc23)CN1C(=O)[C@@H](NC(=O)OC(C)(C)C)C(C)(C)C)C(=O)NS(=O)(=O)C1CC1 [Compound 379] | < 0.1 µM | < 0.1 µM | 
6 | C=C[C@@H]1C[C@]1(NC(=O)[C@@H]1C[C@@H](Oc2nccc3cc(OC)ccc23)CN1C(=O)[C@@H](NC(=O)OC1CCCC1)C(C)(C)C)C(=O)NS(=O)(=O)C1CCC1 [Compound 380] | 0.1 to 1 µM | < 0.1 µM | 
7 | C=C[C@@H]1C[C@]1(NC(=O)[C@@H]1C[C@@H](Oc2nccc3cc(OC)ccc23)CN1C(=O)[C@@H](NC(=O)OCC(C)(C)C)C(C)(C)C)C(=O)NS(=O)(=O)C1CCC1 [Compound 381] | 0.1 to 1 µM |  | < 0.1 µM
8 | C=C[C@@H]1C[C@]1(NC(=O)[C@@H]1C[C@@H](Oc2nccc3cc(OC)ccc23)CN1C(=O)[C@@H](NC(=O)OC(C)(C)CC)C(C)(C)C)C(=O)NS(=O)(=O)C1CCC1 [Compound 382] | 0.1 to 1 µM | < 0.1 µM | 
9 | C=C[C@@H]1C[C@]1(NC(=O)[C@@H]1C[C@@H](Oc2nccc3cc(OC)ccc23)CN1C(=O)[C@@H](NC(=O)NC(C)(C)C)C(C)(C)C)C(=O)NS(=O)(=O)C1CCC1 [Compound 383] | < 0.1 µM | < 0.1 µM | 
10 | C=C[C@@H]1C[C@]1(NC(=O)[C@@H]1C[C@@H](Oc2nccc3cc(OC)ccc23)CN1C(=O)[C@@H](NC(=O)OC1(C)CCCC1)C(C)(C)C)C(=O)NS(=O)(=O)C1CCC1 [Compound 384] | < 0.1 µM | < 0.1 µM | 
11 | C=C[C@@H]1C[C@]1(NC(=O)[C@@H]1C[C@@H](Oc2nc(N3CCOCC3)cc3cc(OC)ccc23)CN1C(=O)[C@@H](NC(=O)OC(C)(C)C)C(C)(C)C)C(=O)NS(=O)(=O)C1CC1 [Compound 385] | < 0.1 µM | < 0.1 µM | 
12 | C=C[C@@H]1C[C@]1(NC(=O)[C@@H]1C[C@@H](Oc2ccnc3ccccc23)CN1C(=O)[C@@H](NC(=O)OC(C)(C)C)C(C)(C)C)C(=O)NS(C)(=O)=O [Compound 386] | 1 to 10 µM | 0.1 to 1 µM | 
13 | C=C[C@@H]1C[C@]1(NC(=O)[C@@H]1C[C@@H](Oc2cc(C(F)(F)F)nc3ccc(C)cc23)CN1C(=O)[C@@H](NC(=O)OC(C)(C)C)C(C)(C)C)C(=O)NS(=O)(=O)C1CC1 [Compound 410] | < 0.1 µM | < 0.1 µM | 
14 | C=C[C@@H]1C[C@]1(NC(=O)[C@@H]1C[C@@H](Oc2cc(-c3ccccc3)ncn2)CN1C(=O)[C@@H](NC(=O)OC(C)(C)C)C(C)(C)C)C(=O)NS(=O)(=O)C1CC1 [Compound 411] | 0.1 to 1 µM | < 0.1 µM | 
15 | C=C[C@@H]1C[C@]1(NC(=O)[C@@H]1C[C@@H](Oc2cc(-c3cccs3)ncn2)CN1C(=O)[C@@H](NC(=O)OC(C)(C)C)C(C)(C)C)C(=O)NS(=O)(=O)C1CC1 [Compound 412] | < 0.1 µM | < 0.1 µM | 
16 | C=C[C@@H]1C[C@]1(NC(=O)[C@@H]1C[C@@H](Oc2cc(-c3ccccc3)nc(-c3cccs3)c2)CN1C(=O)[C@@H](NC(=O)OC(C)(C)C)C(C)(C)C)C(=O)NS(=O)(=O)C1CC1 [Compound 413] | < 0.1 µM | < 0.1 µM | 
17 | C=C[C@@H]1C[C@]1(NC(=O)[C@@H]1C[C@@H](Oc2cc(-c3ccccc3)nc(-c3ccc(OC)cc3)c2)CN1C(=O)[C@@H](NC(=O)OC(C)(C)C)C(C)(C)C)C(=O)NS(=O)(=O)C1CC1 [Compound 414] | < 0.1 µM | < 0.1 µM | 

Row | SMILES | EC50 [1] | IC50 [2, 3] | IC50 ([2]; read-out: IC50 range; NS3/4A BMS strain)
18 | C=C[C@@H]1C[C@]1(NC(=O)[C@@H]1C[C@@H](Oc2cc(-c3ccccc3)nc(-c3ccccc3)c2)CN1C(=O)[C@@H](NC(=O)OC(C)(C)C)C(C)(C)C)C(=O)NS(=O)(=O)C1CC1 [Compound 415] | < 0.1 µM | < 0.1 µM | 
19 | C=C[C@@H]1C[C@]1(NC(=O)[C@@H]1C[C@@H](Oc2cncc(-c3ccccc3)c2)CN1C(=O)[C@@H](NC(=O)OC(C)(C)C)C(C)(C)C)C(=O)NS(=O)(=O)C1CC1 [Compound 420] | 0.1 to 1 µM | < 0.1 µM | 
20 | C=C[C@@H]1C[C@]1(NC(=O)[C@@H]1C[C@@H](Oc2ccnc(-c3ccccc3)c2)CN1C(=O)[C@@H](NC(=O)OC1CCCC1)C(C)(C)C)C(=O)NS(=O)(=O)C1CC1 [Compound 421] | 0.1 to 1 µM | < 0.1 µM | 
21 | C=C[C@@H]1C[C@]1(NC(=O)[C@@H]1C[C@@H](Oc2cncc(-c3ccncc3)c2)CN1C(=O)[C@@H](NC(=O)OC(C)(C)C)C(C)(C)C)C(=O)NS(=O)(=O)C1CC1 [Compound 422] | 1 to 10 µM | < 0.1 µM | 
22 | C=C[C@@H]1C[C@]1(NC(=O)[C@@H]1C[C@@H](Oc2cncc(-c3ccoc3)c2)CN1C(=O)[C@@H](NC(=O)OC(C)(C)C)C(C)(C)C)C(=O)NS(=O)(=O)C1CC1 [Compound 424] | 0.1 to 1 µM | < 0.1 µM | 
23 | C=C[C@@H]1C[C@]1(NC(=O)[C@@H]1C[C@@H](Oc2ccnc(Br)c2)CN1C(=O)[C@@H](NC(=O)OC1CCCC1)C(C)(C)C)C(=O)NS(=O)(=O)C1CC1 [Compound 425] | 1 to 10 µM | 0.1 to 1 µM | 
24 | C=C[C@@H]1C[C@]1(NC(=O)[C@@H]1C[C@@H](Oc2ccnc(-c3ccoc3)c2)CN1C(=O)[C@@H](NC(=O)OC1CCCC1)C(C)(C)C)C(=O)NS(=O)(=O)C1CC1 [Compound 426] | 0.1 to 1 µM | < 0.1 µM | 
25 | C=C[C@@H]1C[C@]1(NC(=O)[C@@H]1C[C@@H](Oc2ccnc(-c3ccc(F)cc3)c2)CN1C(=O)[C@@H](NC(=O)OC1CCCC1)C(C)(C)C)C(=O)NS(=O)(=O)C1CC1 [Compound 427] | 0.1 to 1 µM | < 0.1 µM | 
26 | C=C[C@@H]1C[C@]1(NC(=O)[C@@H]1C[C@@H](Oc2ccnc(-c3ccc(OC)cc3)c2)CN1C(=O)[C@@H](NC(=O)OC1CCCC1)C(C)(C)C)C(=O)NS(=O)(=O)C1CC1 [Compound 428] | 0.1 to 1 µM | < 0.1 µM | 
27 | C=C[C@@H]1C[C@]1(NC(=O)[C@@H]1C[C@@H](Oc2ccnc(-c3cccs3)c2)CN1C(=O)[C@@H](NC(=O)OC1CCCC1)C(C)(C)C)C(=O)NS(=O)(=O)C1CC1 [Compound 429] | < 0.1 µM | < 0.1 µM | 
28 | C=C[C@@H]1C[C@]1(NC(=O)[C@@H]1C[C@@H](Oc2ccnc(-c3ccsc3)c2)CN1C(=O)[C@@H](NC(=O)OC1CCCC1)C(C)(C)C)C(=O)NS(=O)(=O)C1CC1 [Compound 430] | 0.1 to 1 µM | < 0.1 µM | 
29 | C=C[C@@H]1C[C@]1(NC(=O)[C@@H]1C[C@@H](Oc2ccnc(-c3nccs3)c2)CN1C(=O)[C@@H](NC(=O)OC1CCCC1)C(C)(C)C)C(=O)NS(=O)(=O)C1CC1 [Compound 431] | 0.1 to 1 µM | < 0.1 µM | 
30 | C=C[C@@H]1C[C@]1(NC(=O)[C@@H]1C[C@@H](Oc2cncc(-c3nccs3)c2)CN1C(=O)[C@@H](NC(=O)OC(C)(C)C)C(C)(C)C)C(=O)NS(=O)(=O)C1CC1 [Compound 432] | 0.1 to 1 µM | < 0.1 µM | 
31 | C=C[C@@H]1C[C@]1(NC(=O)[C@@H]1C[C@@H](Oc2cncc(-c3csc(C)n3)c2)CN1C(=O)[C@@H](NC(=O)OC(C)(C)C)C(C)(C)C)C(=O)NS(=O)(=O)C1CC1 [Compound 433] | 1 to 10 µM | 0.1 to 1 µM | 
32 | C=C[C@@H]1C[C@]1(NC(=O)[C@@H]1C[C@@H](Oc2ccnc(-c3cccn3C)c2)CN1C(=O)[C@@H](NC(=O)OC(C)(C)C)C(C)(C)C)C(=O)NS(=O)(=O)C1CC1 [Compound 434] | 0.1 to 1 µM | < 0.1 µM | 
33 | C=C[C@@H]1C[C@]1(NC(=O)[C@@H]1C[C@@H](Oc2cccc(-c3ccoc3)n2)CN1C(=O)[C@@H](NC(=O)OC(C)(C)C)C(C)(C)C)C(=O)NS(=O)(=O)C1CC1 [Compound 435] | 0.1 to 1 µM | < 0.1 µM | 
34 | C=C[C@@H]1C[C@]1(NC(=O)[C@@H]1C[C@@H](Oc2cccc(-c3ccccc3)n2)CN1C(=O)[C@@H](NC(=O)OC(C)(C)C)C(C)(C)C)C(=O)NS(=O)(=O)C1CC1 [Compound 436] | 0.1 to 1 µM | < 0.1 µM | 
